# Laboratory results reported in patent publication US20240315966A1, “COMPOSITION CONTAINING LOXOPROFEN SODIUM” (GUANGZHOU OCUSUN OPHTHALMIC BIOTECHNOLOGY CO., LTD., priority 2021, published 2024).
# Like-named read-outs stand apart in the source and are kept apart here.
# Test: Phase I clinical trial, pharmacokinetics of loxoprofen sodium eye drops
# Details: human, in vivo, topical or ocular; for AUC(0-t): read-out: Average AUC0-t
# Method: loxoprofen sodium eye drops: eye drops of different concentrations were prepared according to Example 1; and
# 2. Research methods: single-center, randomized, double-blind, single and multiple administration dosage escalation designs were used to explore the safety, tolerability and pharmacokinetic characteristics of loxoprofen sodium eye drops. Single administration includes dosages of 0.025 mg (a concentration of 0.5 mg/ml), 0.05 mg (a concentration of 1 mg/ml), 0.1 mg (a concentration of 2 mg/ml), and 0.2 mg (a concentration of 4 mg/mL), with an administration method of once a day, one drop each; and multiple administration includes dosages of 0.05 mg, 0.1 mg, and 0.2 mg, with an administration method of four times a day, one drop each.
smiles,measurement,setting,value
CC(C(=O)O)c1ccc(CC2CCCC2=O)cc1 (stereo not shown) [loxoprofen],Cmax,"0.05 mg, multiple administration (four times a day)",2.66 ± 0.6 ng/mL
same,AUC(0-t),"0.05 mg, multiple administration (four times a day), 0.05 mg",0.47 ± 0.43 ng·h/mL
same,Cmax,"0.1 mg, multiple administration (four times a day)",4.22 ± 1.79 ng/mL
same,AUC(0-t),"0.1 mg, multiple administration (four times a day), 0.1 mg",2.08 ± 1.56 ng·h/mL
same,Cmax,"0.1 mg, single administration",3.69 ± 0.88 ng/mL
same,AUC(0-t),"0.1 mg, single administration, 0.1 mg",1.71 ± 0.99 ng·h/mL
same,Cmax,"0.2 mg, multiple administration (four times a day)",9.46 ± 3.73 ng/mL
same,AUC(0-t),"0.2 mg, multiple administration (four times a day), 0.2 mg",8.33 ± 4.4 ng·h/mL
same,Cmax,"0.2 mg, single administration",8.73 ± 5.19 ng/mL
same,AUC(0-t),"0.2 mg, single administration, 0.2 mg",6.82 ± 6.3 ng·h/mL
same,Tmax,"multiple administration (four times a day), 0.05 mg",12 min
same,Tmax,"multiple administration (four times a day), 0.1 mg",12 min
same,Tmax,"multiple administration (four times a day), 0.2 mg",12 min
